Experimental data from patent US6436960B1, “Farnesyl transferase inhibitors having a piperidine structure and process for preparation thereof” (LG Chemical Ltd., priority 1998, dated 2002).

What was measured:
Ras farnesyl transferase [1] = target: T1, Ras farnesyl transferase (Homo sapiens, UniProt P49354+P49356); assay: in vitro inhibitory activity for Ras farnesyl transferase, H-Ras substrate; assay type: biochemical; conditions: recombinant Ras farnesyl transferase, H-Ras substrate, tritium-farnesylpyrophosphate, 30 minutes at 37° C.; read-out: H-Ras IC50
T1 construct: made in house
Procedure: (§1) In the present experiment, Ras farnesyl transferase produced by genetic recombination techniques according to the improved Pompliano's method (Pompliano et al., Biochemistry, 1992, 31, 3800) was used, and Ras substrate(Ras-CVLS) protein described in Korean Patent Appln. No. 97-14409 was used after it has been purified according to the known method(see, Chung et al., Biochimica et Biophysica Acta, 1992, 278, 1129).
(§2) The enzyme reaction was performed in 50 μl of 50 mM Soduam HEPES buffer solution containing 25 mM of potassium chloride, 25 mM of magnesium chloride, 10 mM of DTT and 50 μM of zinc chloride. 1.5 μM of Ras substrate protein, 0.15 μM of tritium-farnesylpyrophosphate and 4.5 nM of farnesyl transferase were used.
(§3) More specifically, in the initial step, farnesyl transferase was added to the above buffer solution, reaction was maintained for 30 minutes at 37° C. and then the reaction was stopped by adding 1 ml of ethanol solution containing 1M HCl. The formed precipitates were adsorbed to GF/B filter using Hopper harvestor(Hopper #FH 225V) for filter-binding, washed with ethanol, and then radioactivity of the dried filter was measured using LKB β counter. Enzyme titer was measured in the unsaturated state of substrate where the concentrations of Ras substrate protein and farnesyl transferase have quantitative relationship. The compound according to the present invention dissolved in dimethyl sulfoxide(DMSO) was added to the reaction solution in an amount of less than 5% of the total reaction solution, and then the enzyme inhibitory activity thereof was measured. The enzyme inhibitory activity was represented by percentage of the amount of farnesyl incorporated into the Ras substrate protein in the presence of the test compound to that in the absence of the test compound. IC50 of the test compound was defined as the concentration at which 50% of the enzyme activity was inhibited.

Ras farnesyl transferase [2] = target: T1, Ras farnesyl transferase; assay: in vitro inhibitory activity for Ras farnesyl transferase, K-Ras substrate; assay type: biochemical; conditions: recombinant Ras farnesyl transferase, K-Ras substrate; read-out: K-Ras IC50
Procedure: as §1, with “and Ras substrate(Ras-CVLS) protein described in Korean Patent” left out
as §2, §3

Ras farnesyl transferase [3] = target: T2, Ras farnesyl transferase (Rattus norvegicus, UniProt Q02293+Q04631); assay: in vivo (cellular) Ras farnesyl transferase inhibitory activity, Rat2 cells expressing C-Harvey-Ras; assay type: cell-based; conditions: Rat2 cell line expressing C-Harvey-Ras; concentration inhibiting 50% of farnesyl binding of Ras protein; read-out: H-Ras CIC50
T2 construct: endogenous in cells; host or cells: Rat2 fibroblasts transformed with C-Harvey-Ras, or with H-Ras carrying the K-Ras C-terminal polybasic lysine domain
Procedure: (§4) In the present experiment, Rat2 cell line which expresses C-Harvey-Ras protein having transforming activity and Rat2 cell line(Korean patent application No. 97-14409) which is transformed with fused protein of H-Ras substituted with polybasic lysine domain at C-terminus of K-Ras were used. The experiment was performed by the modified Declue's method(Declue. J. E. et al., Cancer Research, 1991, 51, 712). Hereinafter, the experimental method will be described in more detail.
(§5) 3×10^5 cells of transformed Rat2 fibroblast cell line were sprayed on 60 mm cell cultivation dish and cultivated for 48 hours in a cell incubator at 37° C. and after 50% or more of density was reached, it was treated with the test compounds. The compound according to the present invention dissolved in dimethylsulfoxide(DMSO) was used. 1% concentration of dimethylsulfoxide was used in both control and test groups. After 4 hours from the treatment with the compound, methionine labeled with 150 μCi of radioactive isotope [^35S] per 1 ml of medium was added and after cultivating for 20 hours, the cells were washed with physiological saline water. The cells were lysed using 1 ml of cold cell lysis buffer solution(50 mM of Sodium HEPES buffer solution containing 5 mM of magnesium chloride, 1 mM of DTT, 1% NP 40, 1 mM of EDTA, 1 mM of PMSF, 2 μM of leupeptin, 2 μM of pepstatin A and 2 μM of antipain) and the supernatant wherein the cells were lysed was obtained by high-velocity centrifugation of 12,000 g×5 minutes. The amount of radioisotope in the supernatant was measured and standardized to obtain a quantitative result in immunoprecipitation reaction and then, Y13-259, a monoclonal antiboby specifically binding to Ras protein(Furth, M. E. et al., J. Virol, 1982, 43, 294) was added and reacted for 15 hours at 4° C. Protein A(combined with goat anti-murine imunoglobulin antibody)-agarose suspension was added to the solution and reacted for 1 hour at 4° C. and then, to remove the unspecific binding product, immunoprecipitates were washed with a buffer solution (50 mM Tris chloride buffer solution containing 50 mM of sodium chloride, 0.5% of sodium dioxycholate, 0.5% of NP 40 and 0.1% of SDS). The precipitates were added to a buffer solution for electrophoresis and boiled and then, electrophoresis was performed using 13.5% of SDS polyacrylamide gel. After electrophoresis, the gel was fixed and dried. Then, the gel was exposed to X-ray film, developed and printed. From the result of the experiment, intensities of band of protein combined with or without farnesyl of Ras protein were measured, and the concentration of the test compound inhibiting 50% of farnesyl binding was defined as CIC50, an in vivo Ras farnesyl transferase inhibitory activity.

Ras farnesyl transferase [4] = target: T2, Ras farnesyl transferase; assay: in vivo (cellular) Ras farnesyl transferase inhibitory activity, Rat2 cells transformed with H-Ras fused with polybasic lysine domain of K-Ras; assay type: cell-based; conditions: Rat2 cell line transformed with H-Ras substituted with polybasic lysine domain at C-terminus of K-Ras; concentration inhibiting 50% of farnesyl binding; read-out: K-Ras CIC50
Procedure: as §4, §5

With `O=C(OCc1ccccc1)N1CCC(Cn2cncc2Cn2cc(C(=O)N3CCOCC3)c(-c3cccc4ccccc34)c2)CC1` [Compound 1, 1-[1-(1-Benzyloxycarbonyl-piperidin-4-ylmethyl)-1H-imidazol-5-ylmethyl]-3-(morpholin-4-yl)carbonyl-4-(naphthalen-1-yl)-1H-pyrrole] the IC50 (Ras farnesyl transferase [1]) was 0.0085 µM, the IC50 (Ras farnesyl transferase [2]) was 2.4 µM and the IC50 (Ras farnesyl transferase [3]) was 0.1 µM. It also gave an IC50 (Ras farnesyl transferase [4]) of 1 to 10 µM.

For `O=C(c1cn(Cc2cncn2CC2CCNCC2)cc1-c1cccc2ccccc12)N1CCOCC1` [Compound 2], the IC50 (Ras farnesyl transferase [1]) was 0.009 µM, the IC50 (Ras farnesyl transferase [2]) was 6 µM and the IC50 (Ras farnesyl transferase [3]) was 0.1 µM. The IC50 (Ras farnesyl transferase [4]) was 10 to 100 µM.

With `CC(=O)N1CCC(Cn2cncc2Cn2cc(C(=O)N3CCOCC3)c(-c3cccc4ccccc34)c2)CC1` [Compound 3, 1-[1-(1-Acetylpiperidin-4-ylmethyl)-1H-imidazol-5-ylmethyl]-3-(morpholinyl)carbonyl-4-(naphthalen-1-yl)-1H-pyrrole] the IC50 (Ras farnesyl transferase [1]) was 0.001 µM, the IC50 (Ras farnesyl transferase [2]) was 0.016 µM and the IC50 (Ras farnesyl transferase [3]) was 0.01 to 0.1 µM. The IC50 (Ras farnesyl transferase [4]) was 10 to 50 µM.

`CS(=O)(=O)N1CCC(Cn2cncc2Cn2cc(C(=O)N3CCOCC3)c(-c3cccc4ccccc34)c2)CC1` [Compound 4, 1-[1-(1-Methylsulfonyl-piperidin-4-ylmethyl)-1H-imidazol-5-ylmethyl]-3-(morpholin-4-yl)carbonyl-4-(naphthalen-1-yl)-1H-pyrrole] gave an IC50 (Ras farnesyl transferase [1]) of 0.0036 µM, an IC50 (Ras farnesyl transferase [2]) of 0.026 µM and an IC50 (Ras farnesyl transferase [3]) of 0.01 to 0.1 µM. For the same compound, the IC50 (Ras farnesyl transferase [4]) was 10 to 50 µM.

Compound `COCCN(C)C(=O)c1cn(Cc2cncn2CC2CCN(C(=O)OCc3ccccc3)CC2)cc1-c1cccc2ccccc12` [Compound 5, 1-[1-(1-Benzyloxycarbonyl-piperidin-4-ylmethyl)-1H-imidazol-5-ylmethyl]-3-[N-(2-methoxyethyl)-N-methyl]carbamoyl-4-(naphthalen-1-yl)-1H-pyrrole] has an IC50 (Ras farnesyl transferase [1]) of 0.0025 µM, an IC50 (Ras farnesyl transferase [2]) of 0.01 to 0.1 µM and an IC50 (Ras farnesyl transferase [3]) of 0.01 to 0.1 µM. For the same compound, the IC50 (Ras farnesyl transferase [4]) was 1 to 10 µM.

For `COCCN(C)C(=O)c1cn(Cc2cncn2CC2CCNCC2)cc1-c1cccc2ccccc12` [Compound 6, 3-[N-(2-Methoxyethyl)-N-methyl]carbamoyl-4-(naphthalen-1-yl)-1-[1-(piperidin-4-ylmethyl)-1H-imidazol-5-ylmethyl]-1H-pyrrole], the IC50 (Ras farnesyl transferase [1]) was 0.008 µM, the IC50 (Ras farnesyl transferase [2]) was 0.01 to 1 µM and the IC50 (Ras farnesyl transferase [3]) was 0.01 to 0.1 µM. For the same compound, the IC50 (Ras farnesyl transferase [4]) was 1 to 10 µM.

Compound `COCCN(C)C(=O)c1cn(Cc2cncn2CC2CCN(C(C)=O)CC2)cc1-c1cccc2ccccc12` [Compound 7, 1-[1-(1-Acetyl-piperidin-4-ylmethyl)-1H-imidazol-5-ylmethyl]-3-[N-(2-methoxyethyl)-N-methyl]carbamoyl-4-(naphthalen-1-yl)-1H-pyrrole] has an IC50 (Ras farnesyl transferase [1]) of 0.0018 µM, an IC50 (Ras farnesyl transferase [2]) of 0.01 to 0.1 µM and an IC50 (Ras farnesyl transferase [3]) of 0.01 to 0.1 µM. It also gave an IC50 (Ras farnesyl transferase [4]) of 10 to 100 µM.

Compound `COCCN(C)C(=O)c1cn(Cc2cncn2CC2CCN(S(C)(=O)=O)CC2)cc1-c1cccc2ccccc12` [Compound 8, 3-[N-(2-Methoxyethyl)-N-methyl]carbamoyl-1-[1-(1-methylsulfonyl-piperidin-4-ylmethyl)-1H-imidazol-5-ylmethyl]-4-(naphthalen-1-yl)-1H-pyrrole] has an IC50 (Ras farnesyl transferase [1]) of 0.0012 µM, an IC50 (Ras farnesyl transferase [2]) of 0.01 to 0.1 µM and an IC50 (Ras farnesyl transferase [3]) of 0.01 to 0.1 µM. For the same compound, the IC50 (Ras farnesyl transferase [4]) was 10 to 50 µM.

Compound `COCCN(C)C(=O)c1cn(Cc2cncn2CC2CCN(C(=O)NCc3ccccc3)CC2)cc1-c1cccc2ccccc12` [Compound 9, 1-{1-[1-(N-Benzylcarbamoyl)-piperidin-4-ylmethyl]-1H-imidazol-5-ylmethyl}-3-[N-(2-methoxyethyl)-N-methyl]carbamoyl(naphthalen-1-yl)-1H-pyrrole] has an IC50 (Ras farnesyl transferase [1]) of 0.001 to 0.01 µM, an IC50 (Ras farnesyl transferase [2]) of 0.01 to 1 µM and an IC50 (Ras farnesyl transferase [3]) of 0.01 to 0.1 µM. For the same compound, the IC50 (Ras farnesyl transferase [4]) was 1 to 50 µM.

With `CCCCNC(=O)N1CCC(Cn2cncc2Cn2cc(C(=O)N(C)CCOC)c(-c3cccc4ccccc34)c2)CC1` [Compound 10, 1-{1-[1-(N-Butylcarbamoyl)-piperidin-4-ylmethyl]-1H-imidazol-5-ylmethyl}-3[N-(2-methoxyethyl)-N-methyl]carbamoyl-4-(naphthalen-1-yl)-1H-pyrrole] the IC50 (Ras farnesyl transferase [1]) was 0.001 to 0.01 µM, the IC50 (Ras farnesyl transferase [2]) was 0.01 to 1 µM and the IC50 (Ras farnesyl transferase [3]) was 0.01 to 0.1 µM. For the same compound, the IC50 (Ras farnesyl transferase [4]) was 1 to 50 µM.

Compound `COCCN(C)C(=O)c1cn(Cc2cncn2CC2CCN(C(=O)NC3CCCCC3)CC2)cc1-c1cccc2ccccc12` [Compound 11, 1-{1-[1-(N-Cyclohexylcarbamoyl)-piperidin-4-ylmethyl]-1H-imidazol-5-ylmethyl}-3-[N-(2-methoxyethyl)-N-methyl]carbamoyl-4-(naphthalen-1-yl)-1H-pyrrole] has an IC50 (Ras farnesyl transferase [1]) of 0.001 to 0.01 µM, an IC50 (Ras farnesyl transferase [2]) of 0.01 to 1 µM and an IC50 (Ras farnesyl transferase [3]) of 0.01 to 0.1 µM. It also gave an IC50 (Ras farnesyl transferase [4]) of 1 to 50 µM.

In the case of `CCCCCCC(=O)N1CCC(Cn2cncc2Cn2cc(C(=O)N(C)CCOC)c(-c3cccc4ccccc34)c2)CC1` [Compound 12, 1-[1-(1-Heptanoyl-piperidin-4-ylmethyl)-1H-imidazol-5-ylmethyl]-3-[N-(2-methoxyethyl)-N-methyl]carbamoyl-4-(naphthalen-1-yl)-1H-pyrrole], the IC50 (Ras farnesyl transferase [1]) is reported as 0.001 to 0.01 µM, the IC50 (Ras farnesyl transferase [2]) is reported as 0.01 to 1 µM and the IC50 (Ras farnesyl transferase [3]) is reported as 0.01 µM. The IC50 (Ras farnesyl transferase [4]) was 1 to 50 µM.

Work on `COCCN(C)C(=O)c1cn(Cc2cncn2CC2CCN(C(=O)Cc3ccc(OC)cc3)CC2)cc1-c1cccc2ccccc12` [Compound 13, 1-{1-[1-(4-Methoxybenzylcarbonyl)-piperidin-4-ylmethyl]-1H-imidazol-5-ylmethyl}-3-[N-(2-methoxyethyl)-N-methyl]carbamoyl-4-(naphthalen-1-yl)-1H-pyrrole] yielded an IC50 (Ras farnesyl transferase [1]) of 0.001 to 0.01 µM, an IC50 (Ras farnesyl transferase [2]) of 0.01 to 1 µM and an IC50 (Ras farnesyl transferase [3]) of 0.01 to 0.1 µM. For the same compound, the IC50 (Ras farnesyl transferase [4]) was 1 to 50 µM.

In the case of `COCCN(C)C(=O)c1cn(Cc2cncn2CC2CCN(C(=O)COc3ccccc3)CC2)cc1-c1cccc2ccccc12` [Compound 14, 3-[N-(2-Methoxyethyl)-N-methyl]carbamoyl-4-(naphthalen-1-yl)-1-[1-(1-phenoxyacetyl-piperidin-4-ylmethyl)-1H-imidazol-5-ylmethyl]-1H-pyrrole], the IC50 (Ras farnesyl transferase [1]) is reported as 0.0021 µM, the IC50 (Ras farnesyl transferase [2]) is reported as 0.01 to 1 µM and the IC50 (Ras farnesyl transferase [3]) is reported as 0.01 to 0.1 µM. The IC50 (Ras farnesyl transferase [4]) was 1 to 50 µM.

`COCCN(C)C(=O)c1cn(Cc2cncn2CC2CCN(C(=O)CCc3ccccc3)CC2)cc1-c1cccc2ccccc12` [Compound 15, 3-[N-(2-Methoxyethyl)-N-methyl]carbamoyl-4-(naphthalen-1-yl)-1-{1-[1-(2-phenylethylcarbonyl)-piperidin-4-ylmethyl]-1H-imidazol-5-ylmethyl}-1H-pyrrole] was tested, and the IC50 (Ras farnesyl transferase [1]) was 0.001 µM, the IC50 (Ras farnesyl transferase [2]) was 0.01 to 1 µM and the IC50 (Ras farnesyl transferase [3]) was 0.01 to 0.1 µM. For the same compound, the IC50 (Ras farnesyl transferase [4]) was 1 to 50 µM.
